Measurements taken from patent US11512056B2 (Anhui New Star Pharmaceutical Development Co., Ltd, priority 2018, dated 2022).
Several values for one entry are separate records, joined by “and”; a condition that tells them apart may be missing. Equal values may be shown once.

Experiments:
platelets (rabbit blood) = assay: Inhibition of platelet aggregation in vitro (rabbit blood), ADP-induced, turbidimetric; format: cell-based, New Zealand white rabbits; conditions: Oryctolagus cuniculus, rabbit PRP, ADP final concentration 10 μM
Text: Blood was collected from New Zealand white rabbits (body weight 1-1.5 kg). After the animal was anesthetized with 10% chloral hydrate, the animal was placed supinely on the rabbit board, precordial hair was cut off, and the skin was disinfected with iodine and alcohol. Touch with left hand the 3rd to 4th intercostal space on the left edge of the sternum. Chose the most obvious place for the puncture point. Held the syringe in right hand and insert the needle into the chest cavity. Inserted the needle into the heart and then draw out the blood when feel the heart beating through the needle. […] assay system with a total volume of 300 μL, that is, 280 μL of diluted PRP was taken and placed in a turbidimetric tube, and was incubated with 10 μL of drug or solvent control at 37° C. for 5 minutes, and then 10 μL of different inducers such ADP (final concentration 10 μM) were added to determine the maximum platelet aggregation rate within 5 minutes. Repeation was taken at least three times […].
Platelet-rich plasma (PRP) was obtained by centrifuging blood at 1200 rpm for 10 minutes, and platelet aggregation was measured as described above. […] The platelet density in PRP is counted with a hemocytometer and diluted with platelet-poor plasma (PPP). […]

arterial thrombosis = assay: SD male rat arteriovenous short circuit thrombosis model (A-V shunt); format: in vivo, male SD rats
Method: Cut the surgical wire with a length of 6 cm, weigh and recorded it on an analytical balance (about 2 mg dry weight), and placed it in a thick polyethylene tube with a length of 6 cm. Inserted a thin tube at each end of the thick tube spare. Male SD rats were intragastrically administered for 4 hours, anesthetized with pentobarbital 60 mg/kg, separated the common carotid artery and common jugular vein, connected the arteries and veins with the above polyethylene tube, opened the blood flow for 15 minutes, removed the surgical line and weighed (WW).

human platelets [1] = assay: Thrombin-induced human platelet aggregation (PRP, turbidimetric); format: cell-based; conditions: for inhibition at 0.003 µM: concentration 0.003 μM; for IC50: read-out: IC50 on thrombin-induced platelet aggregation rate
Method: Volunteers' whole blood was drawn from venous blood with 1:6 D-citrate ACD (85 mmol/L sodium citrate, 71.38 mmol/L citrate, 27.78 mmol/L glucose) for anticoagulation, and centrifuged at 300 g at room temperature for 10 minutes, platelet rich plasma (PRP) was separated.
(§1) The turbidimetric platelet aggregation test was performed on the Chrono-Log Company's dual-channel optical platelet aggregation instrument. The speed of the icon recorder was set to 1 cm/min, and the aggregation curve was recorded. First, the platelet aggregator was preheated to 37° C., and 400 μL platelet suspension and stir bar were added to the turbidity tube, PPP was used as a reference, and traced the baseline under constant magnetic stirring at 37° C. After the baseline is stable, with the experiment plan, different concentrations of antagonists or other reagents were added to treat platelets for 2 minutes, and then the inducer ADP was added to observe and record changes in the aggregation curve.

human platelets [2] = assay: Collagen-induced aggregation of human platelets (PRP, turbidimetric); format: cell-based
Method: Volunteers' whole blood was drawn from venous blood with 1:6 dextro-citrate ACD (85 mmol/L sodium citrate, 71.38 mmol/L citrate, 27.78 mmol/L glucose) for anticoagulation, and centrifuged at 300 g at room temperature for 10 Minutes, separate platelet rich plasma (PRP).
as §1, with “was” for “is”, “antagonist” for “antagonists”, “then” for “then the”, “collagen” for “ADP”
The platelet aggregation rate of the solvent control group was set to be 100%. The inhibitory effects of the compounds on normal human platelet aggregation induced by collagen at different concentrations were as follows: […]

human platelets [3] = assay: ADP-induced aggregation of human platelets (PRP, turbidimetric); format: cell-based; conditions: for inhibition at 0.005 µM: concentration 0.005 μM; for inhibition at 0.01 µM: concentration 0.01 μM; for inhibition at 5 µM: concentration 5 μM; for inhibition at 10 µM: concentration 10 μM; for IC50: read-out: IC50 of compound on ADP-induced platelet aggregation rate
Method: Volunteers' whole blood was drawn from venous blood with 1:6 dextro-citrate ACD (85 mmol/L sodium citrate, 71.38 mmol/L citrate, 27.78 mmol/L glucose) for anticoagulation, and centrifuged at 300 g at room temperature for 10 minutes, platelet rich plasma (PRP) was separated.
as §1, with “C.,” for “C., and”, “tube, use” for “tube,”, “PPP” for “PPP was used”, “baseline was” for “baseline is”, “with” for “with the”

[4] = Homo sapiens, Platelet, 0.5 U/ml thrombin, read-out: Aggregation inhibition rate %
[5] = Homo sapiens, Platelet, 0.5 U/ml thrombin, concentration 0.01 μM, read-out: Aggregation inhibition rate %
[6] = Homo sapiens, Platelet, 0.5 U/ml thrombin, concentration 20 μM, read-out: Aggregation inhibition rate %
[7] = Homo sapiens, Platelet, column 1
[8] = Homo sapiens, Platelet, column 2
[9] = Homo sapiens, Platelet, column 3
[10] = 1 μg/ml collagen, concentration 0.01 μM, 0.01 µM
[11] = Homo sapiens, Platelet, 1 μg/ml collagen, concentration 3 μM, read-out: Aggregation inhibition rate %
[12] = Homo sapiens, Platelet, column 1, read-out: IC50 of compound on collagen-induced platelet aggregation rate
[13] = Homo sapiens, Platelet, column 2, read-out: IC50 of compound on collagen-induced platelet aggregation rate
[14] = Homo sapiens, Platelet, column 3, read-out: IC50 of compound on collagen-induced platelet aggregation rate
[15] = 10 μM ADP, concentration 0.1 μM
[16] = Homo sapiens, Platelet, 10 μM ADP, read-out: Aggregation inhibition rate %
[17] = Homo sapiens, Platelet, 10 μM ADP, concentration 3 μM, read-out: Aggregation inhibition rate %

Work on `CCC(=O)NC(=N)Nc1ccc(C2=NNC(=O)CC2C)cc1` (stereo not drawn) yielded an IC50 (platelets (rabbit blood)) of 334 nM.
With `CC1CC(=O)NN=C1c1ccc(NC(=N)N)cc1` (stereo not drawn) [No. 1, 1-(4-(4-methyl-6-oxo-1,4,5,6-tetrahydropyridazin-3-yl)phenyl)guanidine] the IC50 (platelets (rabbit blood)) was 197 nM, the Thrombus wet weight (arterial thrombosis; 10 mg/kg intragastric, 4 hours before, blood flow 15 minutes, individual values) was 11.7 mg and 11.5 mg and 12.1 mg and the “weight of arterial thrombus in rats” value (arterial thrombosis; intragastric administration) was “significantly reduced”. The “Aggregation inhibition rate %” value (human platelets [1]; 0.5 U/ml thrombin, concentration 0.01 μM, 0.01 µM) was 2.81%, the “Aggregation inhibition rate %” value (human platelets [1]; 0.5 U/ml thrombin, concentration 0.1 μM, 0.1 µM) was 46.03% and 40.98% and 65.21% and the “Aggregation inhibition rate %” value (human platelets [1]; 0.5 U/ml thrombin, concentration 0.3 μM, 0.3 µM) was 80.95% and 89.85%. For the same compound, the “Aggregation inhibition rate %” value (human platelets [1]; 0.5 U/ml thrombin, concentration 1 μM, 1 µM) was 95.83% and 97.33%, the inhibition at 0.003 µM (human platelets [1]; [4]) was 0% and the inhibition at 0.01 µM (human platelets [1]; [5]) was 3.08%. The inhibition at 0.3 µM (human platelets [1]; Homo sapiens, Platelet, 0.5 U/ml thrombin, concentration 0.3 μM, read-out: Aggregation inhibition rate %) was 71.4%, the inhibition at 1 µM (human platelets [1]; Homo sapiens, Platelet, 0.5 U/ml thrombin, concentration 1 μM, read-out: Aggregation inhibition rate %) was 85.7% and the inhibition at 3 µM (human platelets [1]; Homo sapiens, Platelet, 0.5 U/ml thrombin, concentration 3 μM, read-out: Aggregation inhibition rate %) was 100%. It also gave an inhibition at 10 µM (human platelets [1]; Homo sapiens, Platelet, 0.5 U/ml thrombin, concentration 10 μM, read-out: Aggregation inhibition rate %) of 100%, an inhibition at 20 µM (human platelets [1]; [6]) of 100% and an IC50 (human platelets [1]; [7]) of 194 nM. The IC50 (human platelets [1]; [8]) was 140 nM, the IC50 (human platelets [1]; [9]) was 78 nM and the “inhibitory effect on platelet aggregation induced by collagen” value (human platelets [2]; 1 μg/ml collagen) was “significant inhibitory effect”. For the same compound, the “Aggregation inhibition rate %” value (human platelets [2]; [10]) was 8.96% and 10.94%, the “Aggregation inhibition rate %” value (human platelets [2]; 1 μg/ml collagen, concentration 0.3 μM, 0.3 µM) was 79.10% and 44.78% and 54.69% and the “Aggregation inhibition rate %” value (human platelets [2]; 1 μg/ml collagen, concentration 1 μM, 1 µM) was 80.59% and 95.31%. It also gave an inhibition at 0.003 µM (human platelets [2]; Homo sapiens, Platelet, 1 μg/ml collagen, concentration 0.003 μM, read-out: Aggregation inhibition rate %) of 5.97%, an inhibition at 0.01 µM (human platelets [2]; Homo sapiens, Platelet, 1 μg/ml collagen, concentration 0.01 μM, read-out: Aggregation inhibition rate %) of 10.4% and an inhibition at 1 µM (human platelets [2]; Homo sapiens, Platelet, 1 μg/ml collagen, concentration 1 μM, read-out: Aggregation inhibition rate %) of 95.9%. For the same compound, the inhibition at 3 µM (human platelets [2]; [11]) was 100%, the IC50 (human platelets [2]; Homo sapiens, Platelet, 1 μg/ml collagen, read-out: IC50 on platelet aggregation induced by collagen) was 157 nM and the IC50 (human platelets [2]; [12]) was 95 nM. For the same compound, the IC50 (human platelets [2]; [13]) was 233 nM, the IC50 (human platelets [2]; [14]) was 143 nM and the “Aggregation inhibition rate %” value (human platelets [3]; 10 μM ADP, concentration 0.03 μM, listed as Compound No.1) was 17.39%. The “Aggregation inhibition rate %” value (human platelets [3]; 10 μM ADP, concentration 0.03 μM, listed as No.1 Compound) was 49.01%, the “Aggregation inhibition rate %” value (human platelets [3]; [15]) was 37.68% and the “Aggregation inhibition rate %” value (human platelets [3]; 10 μM ADP, concentration 0.3 μM, listed as Compound No.1) was 39.13%. The “Aggregation inhibition rate %” value (human platelets [3]; 10 μM ADP, concentration 0.3 μM, listed as No.1 Compound) was 62.74%, the “Aggregation inhibition rate %” value (human platelets [3]; 10 μM ADP, concentration 1 μM, listed as Compound No.1) was 42.02% and the “Aggregation inhibition rate %” value (human platelets [3]; 10 μM ADP, concentration 1 μM, listed as No.1 Compound) was 66.67%. The “Aggregation inhibition rate %” value (human platelets [3]; 10 μM ADP, concentration 3 μM) was 51.88%, the inhibition at 0.005 µM (human platelets [3]; [16]) was 2.99% and the inhibition at 0.01 µM (human platelets [3]; [16]) was 8.69%. For the same compound, the inhibition at 0.1 µM (human platelets [3]; Homo sapiens, Platelet, 10 μM ADP, concentration 0.1 μM, read-out: Aggregation inhibition rate %) was 43.1%, the inhibition at 3 µM (human platelets [3]; [17]) was 71.6% and the inhibition at 5 µM (human platelets [3]; [16]) was 81.4%. For the same compound, the inhibition at 10 µM (human platelets [3]; [16]) was 95.1%, the IC50 (human platelets [3]; [7]) was 97 nM and the IC50 (human platelets [3]; [8]) was 1080 nM. It also gave an IC50 (human platelets [3]; [9]) of 154 nM.
In the case of `CCCSc1nc(N[C@@H]2C[C@H]2c2ccc(F)c(F)c2)c2nnn([C@@H]3C[C@H](OCCO)[C@@H](O)[C@H]3O)c2n1` [Ticagrelor, reference compound], the “Aggregation inhibition rate %” value (human platelets [1]; 0.5 U/ml thrombin, concentration 3 μM, 3 µM) is reported as 69.84% and 49.33% and 92.53%, the “Aggregation inhibition rate %” value (human platelets [1]; 0.5 U/ml thrombin, concentration 10 μM, 10 µM) is reported as 80.95% and 55.41% and the “Aggregation inhibition rate %” value (human platelets [1]; 0.5 U/ml thrombin, concentration 20 μM, 20 µM) is reported as 81.33%. The inhibition at 0.003 µM (human platelets [1]; [4]) was 0%, the inhibition at 0.01 µM (human platelets [1]; [5]) was 0% and the inhibition at 20 µM (human platelets [1]; [6]) was 95.2%. The IC50 (human platelets [1]; [7]) was 851 nM, the IC50 (human platelets [1]; [8]) was 4020 nM and the IC50 (human platelets [1]; [9]) was 161 nM. For the same compound, the “Aggregation inhibition rate %” value (human platelets [2]; 1 μg/ml collagen, concentration 0.003 μM, 0.003 µM) was 4.23% and 1.45%, the “Aggregation inhibition rate %” value (human platelets [2]; [10]) was 8.69% and 2.98% and 9.86% and the “Aggregation inhibition rate %” value (human platelets [2]; 1 μg/ml collagen, concentration 0.03 μM, 0.03 µM) was 8.95% and 15.49%. The “Aggregation inhibition rate %” value (human platelets [2]; 1 μg/ml collagen, concentration 3 μM, 3 µM) was 66.17% and 64.78%, the “Aggregation inhibition rate %” value (human platelets [2]; 1 μg/ml collagen, concentration 10 μM, 10 µM) was 75% and 92.95% and the inhibition at 0.03 µM (human platelets [2]; Homo sapiens, Platelet, 1 μg/ml collagen, concentration 0.03 μM, read-out: Aggregation inhibition rate %) was 13%. For the same compound, the inhibition at 3 µM (human platelets [2]; [11]) was 75.4%, the inhibition at 10 µM (human platelets [2]; Homo sapiens, Platelet, 1 μg/ml collagen, concentration 10 μM, read-out: Aggregation inhibition rate %) was 82.6% and the inhibition at 20 µM (human platelets [2]; Homo sapiens, Platelet, 1 μg/ml collagen, concentration 20 μM, read-out: Aggregation inhibition rate %) was 100%. For the same compound, the IC50 (human platelets [2]; [12]) was 888 nM, the IC50 (human platelets [2]; [13]) was 532 nM and the IC50 (human platelets [2]; [14]) was 908 nM. For the same compound, the “Aggregation inhibition rate %” value (human platelets [3]; 10 μM ADP, concentration 0.03 μM) was 13.69%, the “Aggregation inhibition rate %” value (human platelets [3]; [15]) was 15.06% and the “Aggregation inhibition rate %” value (human platelets [3]; 10 μM ADP, concentration 0.3 μM) was 20.54%. For the same compound, the “Aggregation inhibition rate %” value (human platelets [3]; 10 μM ADP, concentration 1 μM) was 57.53%, the “Aggregation inhibition rate %” value (human platelets [3]; 10 μM ADP, concentration 3 μM) was 86.30% and the inhibition at 0.005 µM (human platelets [3]; [16]) was 0%. For the same compound, the inhibition at 0.01 µM (human platelets [3]; [16]) was 4.11%, the inhibition at 3 µM (human platelets [3]; [17]) was 100% and the inhibition at 5 µM (human platelets [3]; [16]) was 100%. The inhibition at 10 µM (human platelets [3]; [16]) was 100%, the IC50 (human platelets [3]; [7]) was 72 nM and the IC50 (human platelets [3]; [8]) was 963 nM. For the same compound, the IC50 (human platelets [3]; [9]) was 261 nM.
